Test results as given in ChEMBL document CHEMBL4507291 (2021).

Experiments:
[1] = target: Cyclin-dependent kinase 11A (Homo sapiens) (UniProt Q9UQ88)
[2] = target: T1, Dual specificity mitogen-activated protein kinase kinase 3 (Homo sapiens) (UniProt P46734)
T1 sequence (whole entry): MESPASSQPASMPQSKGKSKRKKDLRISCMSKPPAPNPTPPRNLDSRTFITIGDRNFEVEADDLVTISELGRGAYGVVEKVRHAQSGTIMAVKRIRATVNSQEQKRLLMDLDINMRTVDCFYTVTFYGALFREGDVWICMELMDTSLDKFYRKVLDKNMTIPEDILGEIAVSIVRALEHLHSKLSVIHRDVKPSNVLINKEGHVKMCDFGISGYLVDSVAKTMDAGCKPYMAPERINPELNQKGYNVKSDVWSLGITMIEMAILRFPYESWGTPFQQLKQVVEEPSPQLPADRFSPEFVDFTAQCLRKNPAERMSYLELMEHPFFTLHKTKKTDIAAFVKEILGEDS

[3] = target: Mitogen-activated protein kinase kinase kinase 10 (Homo sapiens) (UniProt Q02779)
[4] = target: T2, Ephrin type-A receptor 3 (Homo sapiens) (UniProt P29320)
T2 sequence (whole entry): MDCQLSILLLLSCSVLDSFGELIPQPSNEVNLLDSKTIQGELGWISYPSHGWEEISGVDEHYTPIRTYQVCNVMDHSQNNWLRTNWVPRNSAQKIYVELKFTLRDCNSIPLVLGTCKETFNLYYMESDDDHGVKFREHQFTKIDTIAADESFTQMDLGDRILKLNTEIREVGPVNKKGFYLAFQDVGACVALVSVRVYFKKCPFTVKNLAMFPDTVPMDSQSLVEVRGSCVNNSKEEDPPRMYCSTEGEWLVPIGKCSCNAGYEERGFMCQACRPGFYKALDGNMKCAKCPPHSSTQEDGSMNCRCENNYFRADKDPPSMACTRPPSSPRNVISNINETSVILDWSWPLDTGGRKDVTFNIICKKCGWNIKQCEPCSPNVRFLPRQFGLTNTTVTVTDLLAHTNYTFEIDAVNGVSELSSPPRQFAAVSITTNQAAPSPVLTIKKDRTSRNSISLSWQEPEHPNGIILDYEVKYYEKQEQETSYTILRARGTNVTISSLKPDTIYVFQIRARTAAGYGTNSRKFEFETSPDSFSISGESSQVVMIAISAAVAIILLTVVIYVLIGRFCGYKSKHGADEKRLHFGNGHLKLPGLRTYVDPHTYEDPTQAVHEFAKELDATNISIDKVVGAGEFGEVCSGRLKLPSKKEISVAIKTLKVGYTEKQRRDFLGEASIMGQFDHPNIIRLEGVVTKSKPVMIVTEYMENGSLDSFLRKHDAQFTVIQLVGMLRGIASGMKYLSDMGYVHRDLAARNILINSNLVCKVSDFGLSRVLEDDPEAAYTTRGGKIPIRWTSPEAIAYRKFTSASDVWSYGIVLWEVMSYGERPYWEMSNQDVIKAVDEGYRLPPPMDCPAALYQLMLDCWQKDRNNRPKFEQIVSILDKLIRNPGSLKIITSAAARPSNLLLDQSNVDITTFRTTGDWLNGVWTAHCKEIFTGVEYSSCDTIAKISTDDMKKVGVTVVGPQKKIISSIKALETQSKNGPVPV

[5] = target: T3, Serine/threonine-protein kinase D1 (Homo sapiens) (UniProt Q15139)
T3 sequence (whole entry): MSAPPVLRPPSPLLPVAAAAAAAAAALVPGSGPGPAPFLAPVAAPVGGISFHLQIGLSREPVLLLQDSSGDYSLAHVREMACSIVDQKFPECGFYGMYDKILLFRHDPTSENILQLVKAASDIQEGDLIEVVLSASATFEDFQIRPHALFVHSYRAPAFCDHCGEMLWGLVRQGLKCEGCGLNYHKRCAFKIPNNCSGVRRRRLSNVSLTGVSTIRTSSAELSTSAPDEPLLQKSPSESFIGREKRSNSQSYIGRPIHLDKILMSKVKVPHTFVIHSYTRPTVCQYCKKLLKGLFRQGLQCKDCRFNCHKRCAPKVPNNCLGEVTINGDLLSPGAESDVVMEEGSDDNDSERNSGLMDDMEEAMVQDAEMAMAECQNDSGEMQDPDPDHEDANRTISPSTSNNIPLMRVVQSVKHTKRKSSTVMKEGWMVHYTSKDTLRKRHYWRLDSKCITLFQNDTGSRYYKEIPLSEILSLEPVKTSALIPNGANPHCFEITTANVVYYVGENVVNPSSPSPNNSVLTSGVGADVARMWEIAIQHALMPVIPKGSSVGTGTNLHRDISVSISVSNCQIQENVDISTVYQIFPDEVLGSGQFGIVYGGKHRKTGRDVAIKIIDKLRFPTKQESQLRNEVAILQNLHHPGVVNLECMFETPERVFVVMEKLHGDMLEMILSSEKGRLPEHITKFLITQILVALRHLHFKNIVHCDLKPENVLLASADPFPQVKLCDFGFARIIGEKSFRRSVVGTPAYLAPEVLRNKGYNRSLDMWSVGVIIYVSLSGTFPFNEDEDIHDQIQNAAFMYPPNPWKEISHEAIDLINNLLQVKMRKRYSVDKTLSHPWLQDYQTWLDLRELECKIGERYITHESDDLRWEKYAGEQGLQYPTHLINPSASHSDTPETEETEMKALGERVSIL

[6] = target: Phosphatidylinositol 4,5-bisphosphate 3-kinase catalytic subunit beta isoform (Homo sapiens) (UniProt P42338)
[7] = target: Protein kinase C theta type (Homo sapiens) (UniProt Q04759)
[8] = target: Tyrosine-protein kinase receptor UFO (Homo sapiens) (UniProt P30530)
[9] = target: Serine/threonine-protein kinase ULK2 (Homo sapiens) (UniProt Q8IYT8)
[10] = target: Casein kinase I isoform gamma-2 (Homo sapiens) (UniProt P78368)
[11] = target: Serine/threonine-protein kinase WNK4 (Homo sapiens) (UniProt Q96J92)
[12] = target: Mitogen-activated protein kinase kinase kinase kinase 5 (Homo sapiens) (UniProt Q9Y4K4)
[13] = Compound concentration 1000.0 nM
[14] = Compound concentration 100.0 nM

Measured: residual activity

Serine/threonine-protein kinase WNK4 (Homo sapiens), sequence (Q96J92 whole entry): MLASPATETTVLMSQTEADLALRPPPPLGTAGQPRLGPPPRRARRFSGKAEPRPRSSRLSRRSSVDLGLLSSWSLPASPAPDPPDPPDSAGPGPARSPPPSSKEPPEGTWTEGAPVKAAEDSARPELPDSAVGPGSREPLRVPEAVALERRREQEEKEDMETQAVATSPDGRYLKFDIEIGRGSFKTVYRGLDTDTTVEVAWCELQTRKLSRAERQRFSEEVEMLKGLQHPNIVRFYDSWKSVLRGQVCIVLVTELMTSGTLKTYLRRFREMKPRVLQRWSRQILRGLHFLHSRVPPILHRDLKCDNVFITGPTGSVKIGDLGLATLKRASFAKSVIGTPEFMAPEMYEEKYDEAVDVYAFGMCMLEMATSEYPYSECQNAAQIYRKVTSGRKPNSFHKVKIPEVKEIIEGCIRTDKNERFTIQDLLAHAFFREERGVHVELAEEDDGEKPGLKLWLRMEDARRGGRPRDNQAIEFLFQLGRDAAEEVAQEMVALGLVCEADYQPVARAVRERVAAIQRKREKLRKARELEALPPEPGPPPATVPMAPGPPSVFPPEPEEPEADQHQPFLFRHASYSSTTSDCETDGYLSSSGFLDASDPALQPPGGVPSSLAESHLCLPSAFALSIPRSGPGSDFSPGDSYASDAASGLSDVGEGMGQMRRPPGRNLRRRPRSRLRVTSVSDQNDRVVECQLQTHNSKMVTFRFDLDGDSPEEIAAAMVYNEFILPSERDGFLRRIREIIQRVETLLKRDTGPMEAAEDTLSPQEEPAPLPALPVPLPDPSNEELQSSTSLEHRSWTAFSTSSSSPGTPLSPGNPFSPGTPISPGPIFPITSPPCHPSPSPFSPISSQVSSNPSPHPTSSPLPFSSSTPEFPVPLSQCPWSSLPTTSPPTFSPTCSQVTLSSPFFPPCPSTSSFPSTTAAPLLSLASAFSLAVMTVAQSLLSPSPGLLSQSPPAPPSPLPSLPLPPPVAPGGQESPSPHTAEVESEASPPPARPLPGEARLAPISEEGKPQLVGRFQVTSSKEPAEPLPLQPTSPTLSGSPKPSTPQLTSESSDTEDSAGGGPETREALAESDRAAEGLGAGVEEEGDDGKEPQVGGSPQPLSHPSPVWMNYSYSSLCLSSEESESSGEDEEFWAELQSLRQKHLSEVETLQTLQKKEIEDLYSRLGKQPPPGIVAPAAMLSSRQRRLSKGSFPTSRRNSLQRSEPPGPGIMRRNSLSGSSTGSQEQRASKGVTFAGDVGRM
Protein kinase C theta type (Homo sapiens), sequence (Q04759 whole entry, looked up): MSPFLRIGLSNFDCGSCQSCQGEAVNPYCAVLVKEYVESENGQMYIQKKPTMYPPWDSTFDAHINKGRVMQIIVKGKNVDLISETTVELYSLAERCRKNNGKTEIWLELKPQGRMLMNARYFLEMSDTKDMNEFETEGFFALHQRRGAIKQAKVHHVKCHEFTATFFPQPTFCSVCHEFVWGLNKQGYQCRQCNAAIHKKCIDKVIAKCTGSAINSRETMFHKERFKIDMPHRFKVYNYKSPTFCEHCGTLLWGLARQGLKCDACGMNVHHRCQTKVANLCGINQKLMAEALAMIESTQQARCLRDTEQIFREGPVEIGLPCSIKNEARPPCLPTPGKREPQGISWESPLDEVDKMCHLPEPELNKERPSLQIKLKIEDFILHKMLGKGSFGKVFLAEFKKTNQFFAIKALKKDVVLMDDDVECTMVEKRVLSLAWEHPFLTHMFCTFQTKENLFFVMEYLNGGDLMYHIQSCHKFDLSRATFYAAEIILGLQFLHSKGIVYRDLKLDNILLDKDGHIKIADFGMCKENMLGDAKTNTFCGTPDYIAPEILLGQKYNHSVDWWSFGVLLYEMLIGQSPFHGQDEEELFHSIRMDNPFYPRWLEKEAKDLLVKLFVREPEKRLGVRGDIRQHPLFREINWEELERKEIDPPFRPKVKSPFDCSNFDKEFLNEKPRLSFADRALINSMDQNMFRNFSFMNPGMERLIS
Mitogen-activated protein kinase kinase kinase 10 (Homo sapiens), sequence (Q02779 whole entry, looked up): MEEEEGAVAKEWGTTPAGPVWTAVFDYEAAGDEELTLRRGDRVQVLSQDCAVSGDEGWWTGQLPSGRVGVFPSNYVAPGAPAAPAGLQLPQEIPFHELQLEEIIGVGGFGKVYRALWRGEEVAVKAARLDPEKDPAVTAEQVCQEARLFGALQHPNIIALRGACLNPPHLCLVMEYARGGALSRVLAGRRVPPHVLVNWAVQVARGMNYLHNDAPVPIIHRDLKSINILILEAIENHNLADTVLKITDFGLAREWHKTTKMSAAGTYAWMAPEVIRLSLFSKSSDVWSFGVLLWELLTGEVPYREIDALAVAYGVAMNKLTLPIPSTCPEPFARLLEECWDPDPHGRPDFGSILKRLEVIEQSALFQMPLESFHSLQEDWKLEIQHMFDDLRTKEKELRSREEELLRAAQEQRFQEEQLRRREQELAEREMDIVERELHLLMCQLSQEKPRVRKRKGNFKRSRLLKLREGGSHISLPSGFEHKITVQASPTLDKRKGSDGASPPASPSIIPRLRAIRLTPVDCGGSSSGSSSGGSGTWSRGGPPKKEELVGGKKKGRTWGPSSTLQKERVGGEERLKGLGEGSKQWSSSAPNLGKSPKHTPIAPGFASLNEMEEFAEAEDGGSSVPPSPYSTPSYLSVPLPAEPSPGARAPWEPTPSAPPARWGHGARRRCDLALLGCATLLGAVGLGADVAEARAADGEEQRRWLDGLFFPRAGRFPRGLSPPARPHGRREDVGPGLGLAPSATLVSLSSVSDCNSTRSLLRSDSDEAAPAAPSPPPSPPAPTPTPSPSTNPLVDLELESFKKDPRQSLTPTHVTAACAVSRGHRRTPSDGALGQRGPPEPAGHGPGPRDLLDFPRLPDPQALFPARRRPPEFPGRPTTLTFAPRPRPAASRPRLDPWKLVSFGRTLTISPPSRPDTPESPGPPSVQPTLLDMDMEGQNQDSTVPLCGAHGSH
Mitogen-activated protein kinase kinase kinase kinase 5 (Homo sapiens), sequence (Q9Y4K4 whole entry, looked up): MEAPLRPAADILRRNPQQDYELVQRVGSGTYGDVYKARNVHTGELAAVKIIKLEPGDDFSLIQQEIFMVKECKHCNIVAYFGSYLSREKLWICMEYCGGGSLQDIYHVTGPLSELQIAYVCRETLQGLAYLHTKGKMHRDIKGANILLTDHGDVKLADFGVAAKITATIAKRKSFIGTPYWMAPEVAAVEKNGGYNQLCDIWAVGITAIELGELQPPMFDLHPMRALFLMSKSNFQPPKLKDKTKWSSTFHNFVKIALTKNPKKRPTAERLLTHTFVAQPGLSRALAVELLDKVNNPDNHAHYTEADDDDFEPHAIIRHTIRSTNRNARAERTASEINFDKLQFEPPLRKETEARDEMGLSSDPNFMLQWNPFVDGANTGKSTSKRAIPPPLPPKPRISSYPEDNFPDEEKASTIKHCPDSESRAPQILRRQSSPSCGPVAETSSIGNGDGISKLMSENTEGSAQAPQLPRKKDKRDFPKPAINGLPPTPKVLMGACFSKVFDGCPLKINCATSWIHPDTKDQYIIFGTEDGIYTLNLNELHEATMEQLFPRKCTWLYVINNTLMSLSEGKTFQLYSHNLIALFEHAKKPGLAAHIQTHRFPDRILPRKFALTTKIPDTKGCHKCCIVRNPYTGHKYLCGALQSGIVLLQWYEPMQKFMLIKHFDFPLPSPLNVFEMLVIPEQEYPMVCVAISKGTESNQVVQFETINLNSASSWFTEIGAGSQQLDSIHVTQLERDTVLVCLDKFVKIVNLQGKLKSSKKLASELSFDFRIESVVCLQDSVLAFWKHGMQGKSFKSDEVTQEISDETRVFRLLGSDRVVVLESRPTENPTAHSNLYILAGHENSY
Phosphatidylinositol 4,5-bisphosphate 3-kinase catalytic subunit beta isoform (Homo sapiens), sequence (P42338 whole entry, looked up, canonical isoform): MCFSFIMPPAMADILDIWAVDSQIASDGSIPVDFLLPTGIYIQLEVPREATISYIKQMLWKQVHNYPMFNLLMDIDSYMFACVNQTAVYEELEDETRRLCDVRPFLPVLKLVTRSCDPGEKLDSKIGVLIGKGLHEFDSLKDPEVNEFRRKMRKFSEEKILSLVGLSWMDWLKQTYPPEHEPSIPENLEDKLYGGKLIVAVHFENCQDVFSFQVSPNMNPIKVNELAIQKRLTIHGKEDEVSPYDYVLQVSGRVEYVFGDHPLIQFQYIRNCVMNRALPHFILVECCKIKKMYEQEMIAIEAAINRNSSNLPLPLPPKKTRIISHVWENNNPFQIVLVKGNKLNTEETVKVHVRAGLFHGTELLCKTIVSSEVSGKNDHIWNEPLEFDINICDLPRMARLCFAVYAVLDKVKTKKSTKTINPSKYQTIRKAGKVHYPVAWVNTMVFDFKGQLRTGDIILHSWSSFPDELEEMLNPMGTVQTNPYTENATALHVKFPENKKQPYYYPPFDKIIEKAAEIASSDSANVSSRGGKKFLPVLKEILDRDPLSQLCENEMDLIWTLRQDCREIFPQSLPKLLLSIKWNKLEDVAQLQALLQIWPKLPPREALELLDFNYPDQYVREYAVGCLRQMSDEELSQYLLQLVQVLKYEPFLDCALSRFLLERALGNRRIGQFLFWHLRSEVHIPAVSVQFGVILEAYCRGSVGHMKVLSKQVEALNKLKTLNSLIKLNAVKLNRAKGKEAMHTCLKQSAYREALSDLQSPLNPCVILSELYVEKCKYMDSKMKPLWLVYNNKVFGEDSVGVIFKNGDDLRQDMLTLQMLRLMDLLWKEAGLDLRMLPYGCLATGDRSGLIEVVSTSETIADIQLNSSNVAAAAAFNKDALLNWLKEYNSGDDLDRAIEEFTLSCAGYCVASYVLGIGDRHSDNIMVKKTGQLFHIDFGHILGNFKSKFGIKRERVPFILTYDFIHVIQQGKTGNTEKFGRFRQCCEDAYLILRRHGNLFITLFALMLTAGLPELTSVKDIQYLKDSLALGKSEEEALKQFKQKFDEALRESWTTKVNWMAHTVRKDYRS

C[C@@H]1CN(c2cc(-c3nn(C)c4ccc(OC5(C)CC5)cc34)ncn2)C[C@H](C)O1 [MLi-2-NC]
inactive: [1]; [13] 100% | [2]; [13] 70% | [3]; [13] 100% | [4]; [13] 68% | [5]; [13] 82% | [6]; [13] 100% | [7]; [13] 91% | [8]; [13] 100% | [9]; [13] 59% | [10]; [13] 100% | [11]; [13] 60% | [12]; [13] 100%

C[C@@H]1CN(c2cc(-c3n[nH]c4ccc(OC5(C)CC5)cc34)ncn2)C[C@H](C)O1 [MLi-2]
inactive: [1]; [14] 93% | [2]; [14] 71% | [3]; [14] 100% | [4]; [14] 93% | [5]; [14] 84% | [6]; [14] 59% | [7]; [14] 74% | [8]; [14] 100% | [9]; [14] 69% | [10]; [14] 100% | [11]; [14] 94% | [12]; [14] 100%
